According to patent US20250261637A1, “DISINFECTANT COMPOSITIONS AND METHODS THEREOF” (HALOMINE INC., priority 2022, published 2025):

Columns and labels:
[1] = Chlorine stability of chlorinated HA and HASA55 solutions over 10 weeks (available chlorine, DPD); assay type: physicochemical
Description: (§1) Various aqueous electrophilic halogen solutions were used to dissolve HASA55 powder. Undiluted disinfexol stock solution was used as HOCl source, Clorox® germicidal bleach diluted 1:48 volumetrically was used as a NaOCl source, and a stock solution of Purtab prepared by dissolving 1 tablet in a quart of water was used as a NaDCC source. Various samples of HASA55 solutions chlorinated with HOCl, NaOCl, and NaDCC were prepared by dissolving HASA55 in the electrophilic halogen source solutions at stoichiometric molar ratios of 2:1, 1:1, 1:2, 1:4, and 1:8 HASA55:electrophilic halogen source for HOCl and NaOCl, and at stoichiometric molar ratios of 4:1, 2:1, 1:1, 1:2, and 1:4 HASA55:NaDCC. Various samples of HA monomers chlorinated with HOCl, NaOCl, and NaDCC were prepared by dissolving HA monomer in the electrophilic halogen source solutions at stoichiometric molar ratios of 2:1, 1:1, 1:2, 1:3, and 1:6 HA:electrophilic halogen source for HOCl and NaOCl, and at stoichiometric molar ratios of 4:1, 2:1, 1:1, 1:1.5, and 1:3 for HA:NaDCC. The resulting solutions were sealed and stored in air-tight bottles to assess the amount of available chlorine and the pH of the solution over time. Available chlorine concentrations were calculated according to a spectrophotometric method using a DPD indicator as detailed above and pH was calculated using a pH meter.

S. aureus [2] = experiment: MIC testing of chlorinated HASA; assay type: cell-based, Staphylococcus aureus; details: for MIC: Staphylococcus aureus
Description: (§2) NaDCC, NaOC, HOC, and HASA-Cl solutions were prepared at chlorine concentrations of 300, 250, 200, 150, 100, and 50 ppm and mixed with a S. aureus suspension containing […] as an organic load for 30 seconds. After 30 seconds, the mixtures were neutralized with Na2S2O3 to quench oxidative chlorine, added to tryptic soy broth (TSB), and incubated (e.g., for 48 hours at 37° C.). Following the incubation, samples were assessed for S. aureus growth inhibition to determine the minimum inhibitory concentration (MIC). […] To determine the minimum biocidal concentration (MBC), samples were plated on agar and viable colonies counted. […] The analysis was run in duplicate with a 8.34 log inoculum concentration of S. aureus in the first analysis and a 8.37 log inoculum concentration of S. aureus in the second analysis.
(§3) NaDCC, NaOCl, HOC, and HASA-Cl solutions were prepared at chlorine concentrations of 800, 700, 600, 500, 400, 300, 200, and 100 ppm and mixed with a suspension of S. aureus containing 10% FBS or 15% as an organic load and reacted for 1 minute or 5 minutes. After reacting, the mixtures were neutralized with Na2S2O3 to quench oxidative chlorine, added to tryptic soy broth (TSB), and incubated (e.g., for 48 hours at 37° C.). Following the incubation, samples were assessed for S. aureus growth inhibition to determine the MIC. […] To determine the MBC, samples were plated on agar and viable colonies counted. […] The analysis was run in duplicate with a 8.23 log inoculum concentration of S. aureus.
(§4) Three solutions of HASA-Cl (HASA-Cl_D, HASA-Cl_E, and HASA-Cl_F) were prepared by chlorinating HASA55 in aqueous HOCl at varying HASA55:chlorine stoichiometric molar ratios, isolating the chlorinated HASA55-Cl polymer, and dissolving the chlorinated polymer in water. The three HASA-Cl solutions and HASA-HOCl, NaDCC, NaOCl, and HOCl solutions were diluted to chlorine concentrations of 300, 250, 200, 150, 100, and 50 ppm, mixed with a suspension of S. aureus with 5% FBS organic load, and reacted for 30 seconds. After reacting, the mixtures were neutralized to remove oxidative chlorine, added to tryptic soy broth, and incubated (e.g. for 48 hours at 37° C.). Following the incubation, samples were assessed for S. aureus growth inhibition to determine the MIC. To determine the MBC, samples were plated on agar and viable colonies counted. […] The analysis was run in duplicate with a 8.34 log inoculum concentration of S. aureus in the first experiment and a 8.37 log inoculum concentration of S. aureus in the second experiment.

S. aureus [3] = experiment: MBC testing of chlorinated HASA; assay type: cell-based, Staphylococcus aureus; details: for MBC: Staphylococcus aureus
Description: as §2, §3, §4

[4] = pH of chlorinated HA and HASA55 solutions over time; assay type: physicochemical; details: HOCl series, 10 weeks
Description: as §1

[5] = Residual chlorine content of dried chlorinated N-halamine coatings on SS304 coupons; assay type: physicochemical; details: for Estimated residual Cl (%): SS304 coupon
Description: HASA-Cl solutions were prepared according to procedures detailed in EXAMPLE 6 above. Stainless steel 304 (SS304) coupons with a dimension of 1″×1″ and thickness of 0.024″ were scrubbed with a sponge and 1% detergent (e.g., Liquinox®), rinsed with deionized water, and dried. To the dried SS304 coupons, a 1 mL sample of a HASA-Cl, HA-Cl, or electrophilic halogen solution was pipetted using a micropipette without rinsing or wiping the coupon after pipetting. The sample coupons coated with HASA-Cl HA-Cl, and electrophilic halogen sources, were stored at ambient temperature and humidity with indoor light exposure. […] HASA/HOCl solutions with high stoichiometric molar amounts of HASA (2:1 HASA:HOCl and 1:1 HASA:HOCl) formed coatings with a flaked dried polymer appearance, while the other solutions formed coatings with a stain-like appearance with a majority of the SS304 base substrate exposed.
To extract chlorine from the surface of a SS304 sample coupon, a sample coupon was added to a centrifuge tube containing 20 mL of deionized water, 200 mg of K1, and 10 drops of 4N acetic acid. The mixture containing the sample coupon was mixed by shaking (e.g. at 120 rpm for 10 minutes), and solution removed and added to a glass sample cell for analysis by spectrophotometry with a DPD indicator according to the procedure detailed above. The amount of chlorine was calculated against a chlorine standard curve. Chlorine density was calculated according to the following formula: […]
The bars are presented in the order Day 1, Day 2, Day 3, Day 7, and Day 28. […] At 28 days, the chlorine density of HASA/HOCl and HA/HOCl solutions decreased, to around half of the Day 1 chlorine density. […] Estimated residual chlorine percentages were calculated from the ratio of the amount of chlorine retrieved from the dried coating over the amount of chlorine deposited in the 1 mL solution. TABLE 19 summarizes the estimated residual chlorine percentages of HA/HOCl and HASA/HOCl solutions over the 28 days. Estimated residual chlorine percentages were stable for up to 1 week for HASA/HOCl solutions with stoichiometric molar ratios of HASA:HOCl higher than 1:2, aligning with the chlorine density data.

[6] = 5% FBS organic load, 30 seconds (Table 18)
[7] = Exp 1, 5 FBS organic load, 30 seconds, 8.34 log inoculum, ppm chlorine
[8] = Exp 2, 5 FBS organic load, 30 seconds, 8.37 log inoculum
[9] = Exp 1, 5 FBS organic load, 30 seconds, 8.34 log inoculum

For `O=c1nc([O-])n(Cl)c(=O)n1Cl.[Na+]` [NaDCC, sodium dichloroisocyanurate], the “available chlorine over time (in words)” value ([1]; NaDCC series, 6-week time period) was “low available chlorine levels”, the available chlorine ([1]; NaDCC series, Day 0) was 1120 and the available chlorine ([1]; NaDCC series, W 1) was 967. For the same molecule, the available chlorine ([1]; NaDCC series, W 3) was 753, the available chlorine ([1]; NaDCC series, W 6) was 530 and the available chlorine ([1]; NaDCC series, W 10) was 330. It also gave an MIC value (S. aureus [2]; [6]) of 100 ppm, an MIC value (S. aureus [2]; 10% FBS, 1 min) of 200 ppm and an MIC value (S. aureus [2]; 10% FBS, 5 min) of 200 ppm. For the same molecule, the MIC value (S. aureus [2]; 15% FBS, 1 min) was 300 ppm, the MIC value (S. aureus [2]; 15% FBS, 5 min) was 200 ppm and the MIC value (S. aureus [2]; [7]) was 150 ppm. For the same molecule, the MIC value (S. aureus [2]; [8]) was 100 ppm, the MBC value (S. aureus [3]; [6]) was 150 ppm and the MBC value (S. aureus [3]; 10% FBS, 1 min) was 200 ppm. For the same molecule, the MBC value (S. aureus [3]; 10% FBS, 5 min) was 200 ppm, the MBC value (S. aureus [3]; 15% FBS, 1 min) was 300 ppm and the MBC value (S. aureus [3]; 15% FBS, 5 min) was 200 ppm. It also gave an MBC value (S. aureus [3]; [9]) of 150 ppm and an MBC value (S. aureus [3]; [8]) of 150 ppm.
For `OCl` [HOCl, hypochlorous acid], the “chlorine loss (in words)” value ([1]; HOCl series, 10 week period) was “lowest chlorine loss”, the available chlorine ([1]; HOCl series, Day 0) was 707 mg/L and the available chlorine ([1]; HOCl series, W 0) was 727 mg/L. It also gave an available chlorine ([1]; HOCl series, W 4) of 687 mg/L, an available chlorine ([1]; HOCl series, W 6) of 637 mg/L and an available chlorine ([1]; HOCl series, W 10) of 607 mg/L. For the same molecule, the available chlorine ([1]; NaOCl series, Day 0) was 1443, the available chlorine ([1]; NaOCl series, W 1) was 1447 and the available chlorine ([1]; NaOCl series, W 3) was 1443. The available chlorine ([1]; NaOCl series, W 6) was 1520, the available chlorine ([1]; NaOCl series, W 10) was 1537 and the “pH over time (in words)” value [4] was “stable pH”. The MIC value (S. aureus [2]; [6]) was 150 ppm, the MIC value (S. aureus [2]; 10% FBS, 1 min) was 300 ppm and the MIC value (S. aureus [2]; 10% FBS, 5 min) was 100 ppm. For the same molecule, the MIC value (S. aureus [2]; 15% FBS, 1 min) was 300 ppm, the MIC value (S. aureus [2]; 15% FBS, 5 min) was 200 ppm and the MIC value (S. aureus [2]; [7]) was 150 ppm. The MIC value (S. aureus [2]; [8]) was 100 ppm, the MBC value (S. aureus [3]; [6]) was 150 ppm and the MBC value (S. aureus [3]; 10% FBS, 1 min) was 300 ppm. It also gave an MBC value (S. aureus [3]; 10% FBS, 5 min) of 200 ppm, an MBC value (S. aureus [3]; 15% FBS, 1 min) of 300 ppm and an MBC value (S. aureus [3]; 15% FBS, 5 min) of 300 ppm. The MBC value (S. aureus [3]; [9]) was 150 ppm, the MBC value (S. aureus [3]; [8]) was 100 ppm and the “Estimated residual Cl (%)” value ([5]; 1 mL deposited, Day 1) was 0.1%. For the same molecule, the “Estimated residual Cl (%)” value ([5]; Day 2) was 0.2%, the “Estimated residual Cl (%)” value ([5]; Day 3) was 0.3% and the “Estimated residual Cl (%)” value ([5]; Day 7) was 0.1%. The “Estimated residual Cl (%)” value ([5]; Day 28) was 0.2% and the “residual chlorine density (in words)” value ([5]; SS304 coupons, Day 1) was “no residual chlorine density”.
With `OCl` [NaOCl, sodium hypochlorite] the “chlorine levels and pH over time (in words)” value ([1]; NaOCl series) was “no chlorine loss and no change in pH”, the MIC (S. aureus [2]; [6]) was 200 µg/mL and the MIC (S. aureus [2]; 1 min, 10% FBS) was 400 µg/mL. For the same molecule, the MIC (S. aureus [2]; 1 min, 15% FBS) was 500 µg/mL, the MIC (S. aureus [2]; 5 min, 10% FBS) was 100 µg/mL and the MIC (S. aureus [2]; 5 min, 15% FBS) was 100 µg/mL. It also gave an MIC (S. aureus [2]; [7]) of 100 µg/mL, an MIC (S. aureus [2]; [8]) of 100 µg/mL and an MBC value (S. aureus [3]; [8]) of 250 ppm. It also gave an MBC (S. aureus [3]; [6]) of 200 µg/mL, an MBC (S. aureus [3]; 1 min, 10% FBS) of 400 µg/mL and an MBC (S. aureus [3]; 1 min, 15% FBS) of 500 µg/mL. The MBC (S. aureus [3]; 5 min, 10% FBS) was 200 µg/mL, the MBC (S. aureus [3]; 5 min, 15% FBS) was 400 µg/mL and the MBC (S. aureus [3]; [9]) was 200 µg/mL.
